Laboratory results published in patent publication US20120141496A1, “IAP BIR DOMAIN BINDING COMPOUNDS” (AEGERA THERAPEUTICS, INC., priority 2007, published 2012).

Legend:
SKOV-3 = assay: Viability assay (MTT based), SKOV-3; format: cell-based; settings: Homo sapiens, SK-OV-3, SKOV-3 cells, 72 hours, read-out: SKOV-3 ED50
Protocol: (§1) MDA-MD-231 (breast) and SKOV-3 cancer cells were cultured in RPMI1640 media supplemented with 10% FBS and 100 units/mL of Penicillin and Streptomycin.
(§2) Viability assays were done on a number of cells including MDA-MB-231, SKOV-3, H460, PC3, HCT-116, and SW480 cells. Cells were seeded in 96 well plates at a respective density of 5000 and 2000 cells per well and incubated at 37° C. in presence of 5% CO2 for 24 hours. Selected compounds were diluted into the media at various concentration ranging from 0.01 uM up to 100 uM. Diluted compounds were added onto the MDA-MB-231 cells. For the MDA-MB-231 SKOV3, H460, PC3, HCT-116, and SW480 cells, the compounds were added either alone or in presence of 1-3 ng/ml of TRAIL. After 72 hours cellular viability was evaluated by MTT based assays.

MDA-MB-231 = assay: Viability assay (MTT based), MDA-MB-231; format: cell-based; settings: Homo sapiens, MDA-MB-231 cells, 72 hours, read-out: MDA-MB-231 ED50
Protocol: as §1, §2

SMILES: CN[C@@H](C)C(=O)N[C@@H](Cc1ccc(C#CC#Cc2ccc(C[C@H](NC(=O)[C@H](C)NC)C(=O)N3CCC[C@H]3CN(CCc3ccccc3)C(=O)C(F)(F)F)cc2)cc1)C(=O)N1CCC[C@H]1CN(CCc1ccccc1)C(=O)C(F)(F)F [Compound 3]
- EC50 (SKOV-3): 67 nM

SMILES: CN[C@@H](C)C(=O)N[C@H](C(=O)N1CCC[C@H]1CN(CCc1ccccc1)C(=O)[C@H](N)Cc1ccc(OC)cc1)[C@@H](C)OCC#Cc1ccc(C[C@H](NC(=O)[C@H](CO)NC)C(=O)N2CCC[C@H]2CN(CCc2ccccc2)C(=O)C(F)(F)F)cc1 [Compound 7]
- EC50 (SKOV-3): 136 nM

SMILES: CN[C@@H](C)C(=O)N[C@@H](Cc1ccc(C#Cc2ccc(C[C@H](NC(=O)[C@H](C)NC)C(=O)N3CCC[C@H]3CN(CCc3ccccc3)C(=O)C(F)(F)F)cc2)cc1)C(=O)N1CCC[C@H]1CN(CCc1ccccc1)C(=O)C(F)(F)F [Compound 4]
- EC50 (SKOV-3): 37 nM
- EC50 (MDA-MB-231): 159 nM

SMILES: CN[C@@H](CO)C(=O)N[C@@H](Cc1ccc(C#CCO[C@H](C)[C@H](NC(=O)[C@H](CO)NC)C(=O)N2CCC[C@H]2CN(CCc2ccccc2)C(=O)[C@H](N)Cc2ccc(OC)cc2)cc1)C(=O)N1CCC[C@H]1CN(CCc1ccccc1)C(=O)C(F)(F)F [Compound 8]
- EC50 (SKOV-3): 1920 nM

SMILES: CN[C@@H](C)C(=O)N[C@@H](Cc1ccc(-c2ccc(C[C@H](NC(=O)[C@H](C)NC)C(=O)N3CCC[C@H]3CN(CCc3ccccc3)C(=O)C(F)(F)F)cc2)cc1)C(=O)N1CCC[C@H]1CN(CCc1ccccc1)C(=O)C(F)(F)F [Compound 2]
- EC50 (MDA-MB-231): 150 nM

SMILES: CN[C@@H](C)C(=O)N[C@@H](Cc1ccc(C#CCO[C@H](C)[C@H](NC(=O)[C@H](C)NC)C(=O)N2CCC[C@H]2CN(CCc2ccccc2)C(=O)[C@H](N)Cc2ccc(OC)cc2)cc1)C(=O)N1CCC[C@H]1CN(CCc1ccccc1)C(=O)C(F)(F)F [Compound 5]
- EC50 (SKOV-3): 57 nM

SMILES: CN[C@@H](C)C(=O)N[C@@H](Cc1ccc(C#CCO[C@H](C)[C@H](NC(=O)[C@H](CO)NC)C(=O)N2CCC[C@H]2CN(CCc2ccccc2)C(=O)[C@H](N)Cc2ccc(OC)cc2)cc1)C(=O)N1CCC[C@H]1CN(CCc1ccccc1)C(=O)C(F)(F)F [Compound 6]
- EC50 (SKOV-3): 557 nM

SMILES: CN[C@@H](C)C(=O)N[C@@H](Cc1ccc(C#CCO[C@H](C)[C@H](NC(=O)[C@H](C)NC)C(=O)N2CCC[C@H]2CN(CCc2ccccc2)C(=O)C(F)(F)F)cc1)C(=O)N1CCC[C@H]1CN(CCc1ccccc1)C(=O)C(F)(F)F [Compound 1]
- EC50 (SKOV-3): 131 nM
- EC50 (MDA-MB-231): 17 nM
